Laboratory results from patent US20260248774A1, “INHIBITORS OF BACTERIAL TYPE III SECRETION SYSTEM” (MICROBIOTIX, INC., priority 2022, published 2026).
pEC50, pIC50: −log10 of the molar value.

What was measured:
CYP450 1A2 = CYP450 1A2 (Homo sapiens, UniProt P05177); assay: Cytochrome P450 inhibition, CYP1A2 (Eurofins Panlabs panel); type: in vitro ADME; conditions: assayed at 10 μM
Protocol: (§1) Cytochrome P450 Inhibition.
(§2) Assessment of off-target effects of priority compounds. To assess potential off-target effects, we will evaluate prioritized hits validated by in vivo testing in the Eurofins Panlabs HitProfilingScreen+CYP450 assay panel, which is performed by Eurofins as a fee for service. The assay panel of consists of assays for 30 receptors and transporters plus the five major CYP450 enzymes (1A2, 2C19, 2C9, 2D6, 3A4).

[1] = Mammalian cytotoxicity (CC50), MTS conversion; type: cell-based, human; conditions: human, HeLa cells, Table 1; HeLa; read-out: Cytotox-HeLa CC50
Protocol: Determination of Mammalian Cytotoxicity.
Following incubation for 3 days at 37° C. in VP-SFM, cell viability was measured with the vital tetrazolium salt stain 3-(4,5-dimethylthiazol-2-yl)-2,5 diphenyltetrazolium bromide according to the manufacturer's instructions (Promega, Madison, Wisconsin). Values were determined in triplicate using dilutions of inhibitory compound from 100 μM to 0.2 μM.

CYP450 2D6 = CYP450 2D6 (Homo sapiens, UniProt P10635); assay: Cytochrome P450 inhibition, CYP2D6 (Eurofins Panlabs panel); type: in vitro ADME; conditions: assayed at 10 μM
CYP450 2D6, sequence (P10635 whole entry): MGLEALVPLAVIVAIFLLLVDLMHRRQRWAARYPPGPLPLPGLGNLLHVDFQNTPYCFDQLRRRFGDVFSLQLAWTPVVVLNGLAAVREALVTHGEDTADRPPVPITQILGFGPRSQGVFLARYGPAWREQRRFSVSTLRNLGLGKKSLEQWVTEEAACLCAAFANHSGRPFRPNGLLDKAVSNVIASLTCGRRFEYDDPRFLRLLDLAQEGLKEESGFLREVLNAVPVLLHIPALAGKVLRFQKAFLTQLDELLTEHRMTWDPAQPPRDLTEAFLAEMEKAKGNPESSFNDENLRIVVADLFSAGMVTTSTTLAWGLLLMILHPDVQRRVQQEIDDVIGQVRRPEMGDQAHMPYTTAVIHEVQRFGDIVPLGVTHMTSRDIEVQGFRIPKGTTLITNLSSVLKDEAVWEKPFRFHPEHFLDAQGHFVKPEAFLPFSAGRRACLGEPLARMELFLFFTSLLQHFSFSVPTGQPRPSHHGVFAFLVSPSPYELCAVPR
Protocol: as §1, §2

[2] = Kinetic aqueous solubility (nephelometric assay); type: physicochemical; conditions: Table 1
Source text: Solubility. The maximum aqueous solubility of analogs will be initially determined by nephelometry using a published method (44).

[3] = tested on: T3SS-mediated translocation of ExoU by P. aeruginosa strain MDM1561 (PA99U) into CHO cells; assay: P. aeruginosa ExoU-dependent CHO cell killing assay for T3SS-mediated translocation; type: cell-based, Pseudomonas aeruginosa; conditions: read-out: Translocation EC50; Table 1
Source text: P. aeruginosa ExoU-Dependent CHO Cell Killing.

[4] = tested on: panel of human cytochrome P450s (1A2, 2C19, 2C9, 2D6, 3A4), receptors, transporters and ion channels; assay: in vitro
[5] = tested on: P. aeruginosa T3SS-mediated secretion of ExoS-β-lactamase fusion protein; assay: Effector-β-lactamase (ExoS-βLA) reporter assay of T3SS-mediated secretion; type: cell-based, Pseudomonas aeruginosa; conditions: read-out: ExoS-BLA IC50; Table 1
Source text: Effector-β-Lactamase (βLA) Reporter Assay of T3SS-Mediated Secretion with an Absorbency Signal.
A gene encoding the exoS promoter/regulatory region and an ExoS-β-lactamase (βLA) fusion protein (comprised of the full length P. aeruginosa T3SS effector ExoS fused in reading frame to the TEM-1 β-lactamase gene lacking secretion signal codons) was constructed by splicing by overlap extension PCR (SOE-PCR) (Choi and Schweizer, 2005, BMC Microbiol., 5:30), sequence confirmed, cloned into miniCTX and introduced into P. aeruginosa strain PAO1 to generate strains MDM1746 and MDM1838 as previously described for strain MDM1710 (Bowlin et al., 2014, Antimicrob Agents Chemother., 58:2211-2220). Secretion of ExoS-β-lactamase fusion protein following EGTA addition to induce the T3SS operons was detected by measuring the hydrolysis of the chromogenic β-lactamase substrate nitrocefin in clear 96-well microplates in a modification of a previously described assay (Lee, et al., 2007, Infect. Immun., 75:1089-98). Cells of strain MDM1746, or negative control MDM1838 (which fails to carry out T3SS secretion due to ΔpscF), were sub-cultured in the morning from overnight growths in LBG into 0.1 ml of LBGE with or without test compounds and grown for 150 min. Nitrocefin (100 μg/mL final) was added, and A490 measurements taken every minute for 15 min in a Victor^3V 1420 Multilabel HTS Counter (PerkinElmer). Slopes were calculated as a relative measure of the quantity of the effector-βLA fusion protein secreted and were absolutely dependent on induction with EGTA, and the presence of a functional pscF gene in the P. aeruginosa cells. Typical signal: background ratios were 6-10.

CYP450 2C19 = CYP450 2C19 (Homo sapiens, UniProt P33261); assay: Cytochrome P450 inhibition, CYP2C19 (Eurofins Panlabs panel); type: in vitro ADME; conditions: assayed at 10 μM
CYP450 2C19, sequence (P33261 whole entry): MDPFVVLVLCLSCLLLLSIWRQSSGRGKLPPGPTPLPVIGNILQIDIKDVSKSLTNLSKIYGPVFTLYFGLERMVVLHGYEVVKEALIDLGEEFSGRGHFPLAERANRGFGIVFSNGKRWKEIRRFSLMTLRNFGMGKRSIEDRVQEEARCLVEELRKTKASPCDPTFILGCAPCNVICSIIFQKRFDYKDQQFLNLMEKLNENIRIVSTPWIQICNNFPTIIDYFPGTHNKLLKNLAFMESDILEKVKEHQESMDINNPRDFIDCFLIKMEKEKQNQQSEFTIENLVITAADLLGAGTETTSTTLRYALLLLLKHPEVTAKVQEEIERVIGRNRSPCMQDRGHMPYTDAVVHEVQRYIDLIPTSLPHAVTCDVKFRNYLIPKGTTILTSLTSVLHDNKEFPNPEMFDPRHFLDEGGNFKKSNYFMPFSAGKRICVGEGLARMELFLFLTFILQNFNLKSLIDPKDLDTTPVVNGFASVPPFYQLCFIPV
Protocol: as §1, §2

hERG = hERG (Homo sapiens, UniProt Q12809); assay: hERG inhibition
hERG, sequence (Q12809 whole entry): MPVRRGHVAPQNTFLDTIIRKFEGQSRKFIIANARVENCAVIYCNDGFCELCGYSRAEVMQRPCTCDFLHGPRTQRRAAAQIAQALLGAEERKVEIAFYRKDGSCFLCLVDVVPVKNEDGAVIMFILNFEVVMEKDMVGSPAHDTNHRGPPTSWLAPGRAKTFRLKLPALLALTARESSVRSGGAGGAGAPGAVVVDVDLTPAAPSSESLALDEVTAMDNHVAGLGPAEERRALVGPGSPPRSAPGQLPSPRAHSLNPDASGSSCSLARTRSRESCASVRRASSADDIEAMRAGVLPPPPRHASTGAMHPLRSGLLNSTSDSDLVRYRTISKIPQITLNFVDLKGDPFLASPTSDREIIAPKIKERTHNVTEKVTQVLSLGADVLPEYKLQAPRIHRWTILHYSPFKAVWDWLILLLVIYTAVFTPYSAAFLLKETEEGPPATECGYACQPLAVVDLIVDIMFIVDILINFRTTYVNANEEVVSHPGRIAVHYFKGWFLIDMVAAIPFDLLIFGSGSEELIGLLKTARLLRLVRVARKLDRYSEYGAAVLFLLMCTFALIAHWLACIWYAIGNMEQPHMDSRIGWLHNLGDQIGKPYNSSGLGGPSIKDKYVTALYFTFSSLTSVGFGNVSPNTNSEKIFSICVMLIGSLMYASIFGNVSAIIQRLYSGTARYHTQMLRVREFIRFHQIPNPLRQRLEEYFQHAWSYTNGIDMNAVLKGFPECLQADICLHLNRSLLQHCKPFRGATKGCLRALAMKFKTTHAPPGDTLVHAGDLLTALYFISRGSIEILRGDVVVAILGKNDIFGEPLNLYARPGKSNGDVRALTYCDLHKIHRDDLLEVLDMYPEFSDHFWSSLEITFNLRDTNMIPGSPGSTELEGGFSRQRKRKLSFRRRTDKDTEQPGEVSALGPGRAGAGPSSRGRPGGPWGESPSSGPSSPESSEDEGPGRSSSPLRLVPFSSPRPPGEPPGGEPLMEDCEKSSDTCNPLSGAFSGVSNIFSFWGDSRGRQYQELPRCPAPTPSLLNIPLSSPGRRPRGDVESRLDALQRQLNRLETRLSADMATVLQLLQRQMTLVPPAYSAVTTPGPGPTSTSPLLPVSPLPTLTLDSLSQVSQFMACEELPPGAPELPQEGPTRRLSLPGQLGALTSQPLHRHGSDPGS

CYP450 3A4 = CYP450 3A4 (Homo sapiens, UniProt P08684); assay: Cytochrome P450 inhibition, CYP3A4 (Eurofins Panlabs panel); type: in vitro ADME; conditions: assayed at 10 μM
Protocol: as §1, §2

[6] = biological target: panel of human cytochrome P450s, receptors, and ion channels (Homo sapiens, UniProt P08172); conditions: assayed at 10 μM
panel of human cytochrome P450s, receptors, and ion channels (Homo sapiens, UniProt P08172), sequence (P08172 whole entry): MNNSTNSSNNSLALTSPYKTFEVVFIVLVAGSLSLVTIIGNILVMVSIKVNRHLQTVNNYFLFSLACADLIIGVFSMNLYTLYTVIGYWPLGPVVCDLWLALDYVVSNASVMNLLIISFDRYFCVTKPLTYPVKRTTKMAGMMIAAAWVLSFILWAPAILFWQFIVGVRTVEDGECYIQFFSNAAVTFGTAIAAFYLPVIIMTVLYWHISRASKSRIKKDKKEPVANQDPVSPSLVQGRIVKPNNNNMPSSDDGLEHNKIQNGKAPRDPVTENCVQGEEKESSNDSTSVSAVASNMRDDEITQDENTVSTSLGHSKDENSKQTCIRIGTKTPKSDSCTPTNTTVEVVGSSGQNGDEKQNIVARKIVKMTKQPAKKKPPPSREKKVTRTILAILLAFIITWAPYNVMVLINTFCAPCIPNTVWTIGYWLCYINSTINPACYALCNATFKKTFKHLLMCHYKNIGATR

[7] = biological target: panel of human cytochrome P450s, receptors, and ion channels (Rattus norvegicus, UniProt P43140); conditions: assayed at 10 μM
[8] = biological target: panel of human cytochrome P450s, receptors, and ion channels (Homo sapiens, UniProt P02708); conditions: assayed at 10 μM
[9] = biological target: panel of human cytochrome P450s, receptors, and ion channels (Homo sapiens, UniProt P21554); conditions: assayed at 10 μM
panel of human cytochrome P450s, receptors, and ion channels (Homo sapiens, UniProt P21554), sequence (P21554 whole entry): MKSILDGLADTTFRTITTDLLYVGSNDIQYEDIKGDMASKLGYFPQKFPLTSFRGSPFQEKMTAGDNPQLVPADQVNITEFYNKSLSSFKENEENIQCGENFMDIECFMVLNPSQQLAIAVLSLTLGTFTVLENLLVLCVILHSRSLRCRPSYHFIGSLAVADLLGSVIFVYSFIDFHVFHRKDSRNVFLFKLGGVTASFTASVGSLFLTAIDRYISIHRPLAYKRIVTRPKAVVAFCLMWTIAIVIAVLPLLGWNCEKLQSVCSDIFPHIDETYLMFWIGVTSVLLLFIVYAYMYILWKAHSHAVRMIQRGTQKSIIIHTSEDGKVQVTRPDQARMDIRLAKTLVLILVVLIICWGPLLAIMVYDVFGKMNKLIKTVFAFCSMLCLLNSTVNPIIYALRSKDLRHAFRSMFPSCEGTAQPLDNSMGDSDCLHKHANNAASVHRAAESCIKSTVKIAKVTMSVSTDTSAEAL

[10] = biological target: panel of human cytochrome P450s, receptors, and ion channels (Homo sapiens, UniProt P35372); conditions: assayed at 10 μM
[11] = biological target: panel of human cytochrome P450s, receptors, and ion channels (Homo sapiens, UniProt P14416); conditions: assayed at 10 μM
panel of human cytochrome P450s, receptors, and ion channels (Homo sapiens, UniProt P14416), sequence (P14416 whole entry): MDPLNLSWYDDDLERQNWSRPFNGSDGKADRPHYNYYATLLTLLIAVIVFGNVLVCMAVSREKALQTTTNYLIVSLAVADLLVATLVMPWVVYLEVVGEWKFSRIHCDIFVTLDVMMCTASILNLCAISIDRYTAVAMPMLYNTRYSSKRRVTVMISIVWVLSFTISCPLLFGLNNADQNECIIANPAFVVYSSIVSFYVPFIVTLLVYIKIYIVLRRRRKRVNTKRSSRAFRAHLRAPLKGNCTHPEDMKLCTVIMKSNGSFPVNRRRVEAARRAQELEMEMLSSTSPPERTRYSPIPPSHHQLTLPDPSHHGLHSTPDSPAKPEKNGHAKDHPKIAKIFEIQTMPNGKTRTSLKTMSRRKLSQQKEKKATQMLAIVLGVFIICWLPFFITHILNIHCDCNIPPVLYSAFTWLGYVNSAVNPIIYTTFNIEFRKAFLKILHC

[12] = biological target: panel of human cytochrome P450s, receptors, and ion channels (Homo sapiens, UniProt P35367); conditions: assayed at 10 μM
panel of human cytochrome P450s, receptors, and ion channels (Homo sapiens, UniProt P35367), sequence (P35367 whole entry): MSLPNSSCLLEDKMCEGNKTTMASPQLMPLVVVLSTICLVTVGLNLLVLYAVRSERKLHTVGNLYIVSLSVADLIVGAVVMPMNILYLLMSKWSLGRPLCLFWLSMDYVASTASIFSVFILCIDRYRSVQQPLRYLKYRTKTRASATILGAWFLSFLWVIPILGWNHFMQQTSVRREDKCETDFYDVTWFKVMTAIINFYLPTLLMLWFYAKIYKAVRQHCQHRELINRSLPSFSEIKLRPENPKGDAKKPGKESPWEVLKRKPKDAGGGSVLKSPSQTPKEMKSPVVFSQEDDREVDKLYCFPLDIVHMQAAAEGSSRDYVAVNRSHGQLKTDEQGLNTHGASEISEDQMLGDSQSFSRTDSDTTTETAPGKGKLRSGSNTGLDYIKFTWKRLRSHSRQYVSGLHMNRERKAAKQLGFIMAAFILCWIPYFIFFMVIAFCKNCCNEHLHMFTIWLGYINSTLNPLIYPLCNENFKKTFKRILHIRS

[13] = biological target: panel of human cytochrome P450s, receptors, and ion channels (Homo sapiens, UniProt P20309); conditions: assayed at 10 μM
[14] = biological target: panel of human cytochrome P450s, receptors, and ion channels (Homo sapiens, UniProt P23975); conditions: assayed at 10 μM
[15] = biological target: panel of human cytochrome P450s, receptors, and ion channels (Homo sapiens, UniProt P07550); conditions: assayed at 10 μM
panel of human cytochrome P450s, receptors, and ion channels (Homo sapiens, UniProt P07550), sequence (P07550 whole entry): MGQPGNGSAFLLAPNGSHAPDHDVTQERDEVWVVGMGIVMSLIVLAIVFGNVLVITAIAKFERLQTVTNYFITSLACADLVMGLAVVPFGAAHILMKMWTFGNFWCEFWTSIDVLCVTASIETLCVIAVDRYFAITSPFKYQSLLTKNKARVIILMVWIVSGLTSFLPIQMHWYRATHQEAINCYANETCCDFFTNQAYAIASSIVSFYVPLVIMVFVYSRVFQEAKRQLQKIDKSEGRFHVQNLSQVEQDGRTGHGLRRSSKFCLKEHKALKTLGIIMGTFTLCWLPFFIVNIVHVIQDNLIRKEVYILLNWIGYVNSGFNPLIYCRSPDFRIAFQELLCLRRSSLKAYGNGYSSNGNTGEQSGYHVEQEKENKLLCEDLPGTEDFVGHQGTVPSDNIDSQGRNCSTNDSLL

[16] = biological target: panel of human cytochrome P450s, receptors, and ion channels (Homo sapiens, UniProt P30542); conditions: assayed at 10 μM
panel of human cytochrome P450s, receptors, and ion channels (Homo sapiens, UniProt P30542), sequence (P30542 whole entry): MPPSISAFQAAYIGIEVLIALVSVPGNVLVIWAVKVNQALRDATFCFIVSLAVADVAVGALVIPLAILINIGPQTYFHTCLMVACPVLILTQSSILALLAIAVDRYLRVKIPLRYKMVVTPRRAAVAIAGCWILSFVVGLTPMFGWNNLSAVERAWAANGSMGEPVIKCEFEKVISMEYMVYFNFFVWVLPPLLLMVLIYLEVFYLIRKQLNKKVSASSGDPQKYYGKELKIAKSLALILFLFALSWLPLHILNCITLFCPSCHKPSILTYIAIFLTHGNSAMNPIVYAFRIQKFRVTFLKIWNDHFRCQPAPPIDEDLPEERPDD

[17] = biological target: panel of human cytochrome P450s, receptors, and ion channels (Homo sapiens, UniProt P21728); conditions: assayed at 10 μM

CCC(Oc1ccc(Cl)c(Cl)c1Cl)C(=O)NCc1ccc(F)cc1 (centres unmarked) [MBX-4532]
CYP450, 1A2 (CYP450 1A2): 24 | CC50 at 3 days [1]: > 200 µM | CYP450, 2D6 (CYP450 2D6): 0 | Sol [2]: 25 µM | pEC50 [3]: 5.77 | inhibition at 10 µM [4]: > 50% | pIC50 [5]: 6.00 | CYP450, 2C19 (CYP450 2C19): 80 | pIC50 (hERG; Table 1, read-out: hERG INH IC50): < 4.00 | Potassium Channel hERG (hERG; assayed at 10 μM): 26 | CYP450, 3A4 (CYP450 3A4): 13 | Muscarinic M2 [6]: 23 | Adrenergic α1A [7]: 12 | Nicotinic Acetylcholine α1, Bungarotoxin [8]: −17 | Cannabinoid CB1 [9]: 16 | Opiate μ (OP3, MOP) [10]: 26 | Dopamine D2S [11]: 11 | Histamine H1 [12]: 23 | Muscarinic M3 [13]: 8 | Transporter, Norepinephrine (NET) [14]: 61 | Adrenergic β2 [15]: 14 | Adenosine A1 [16]: 15 | Dopamine D1 [17]: 0
